From patent publication US8207314B2, “Tumor antigens for prevention and/or treatment of cancer” (Sanofi Pasteur Limited, priority 2003, dated 2012)

Tests used:
[1] = test system: autologous T-cell-enriched PBMC preparations; assay: IFN-γ ELISPOT of human T cells stimulated with AAC2-2 peptide pools; type: cell-based; conditions: human T cells from HLA-A-0201 donors, after third and fourth round of stimulation with AAC2-2 peptide pools
Experimental: Using the AAC2-2 amino acid sequence, a library of 9-mer peptides predicted to bind to HLA-A-0201 was constructed (Table III; “N” indicates the sequence is not found within the mouse homolog, while “Y” indicates the sequence is found within the mouse homolog). Twenty-three of the peptides were dissolved in DMSO at 10 mg/ml (Table IV) and used in human PBMC cultures to test for their ability to elicit CD8 and CD4αβ T-cell responses in vitro.
Using GM-CSF and IL-4, dendritic cells (DC) were generated from peripheral blood monocytes of blood donors expressing HLA-A-0201.
These DC were used to stimulate autologous T-cell-enriched PBMC preparations. The T cells were re-stimulated with autologous PBMC and then re-stimulated with CD40-ligand-activated autologous B cells. […] Peptide group 6 includes the following peptides: […] (aa 36-44), […] (aa 41-49), and […] (aa 95-103).

[2] = test system: peptide-loaded TAP-deficient T2 cells; assay: CTL activity of AAC2-2 peptide pool-specific T-cell line; type: cell-based, human; conditions: HLA-A-0201-restricted, T-cell line stimulated by peptide group 6
Experimental: Thus, it was determined that AAC2-2 peptides are immunogenic in the human immune system.

For ILTDVTLLV [EC5], the “IFN-γ production (ELISPOT)” value [1] was “dominant activity”, the “CTL activity killing peptide-loaded T2 target cells” value [2] was “dominant activity” and the “CTL activity killing peptide-loaded T2 target cells” value ([2]; listed as ILTDVTLLV) was “dominant peptide”.
